According to US9115213B2, “Phenotypic reversion of pancreatic carcinoma cells” (The Research Foundation of State University of New York, priority 2004, dated 2015):
“Also recorded” adds a separate entry of the source. Where two headings read alike, the source gives them in different places. Where a SMILES comes first, the peptide text is derived from it.

What was measured:
[1] = tested on: insulin-activated wild-type ras-p21; conditions: cited from earlier work
[2] = molecular target: T1, oncogenic ras-p21 (Val 12-p21) (Homo sapiens, UniProt P01112, G12V); conditions: cited from earlier work
T1 construct: host or cells: microinjected into Xenopus laevis oocytes

TUC-3 cells [3] = conditions: cited from earlier work
BMRPA1 cells = conditions: cited from earlier work
[4] = tested on: BMRPA1 pancreatic acinar cells; assay: Peptide incubation with normal BMRPA1 cells
Excerpt: As described in several prior publications (16, 17, 20), we have developed two cell lines, one a normal contact-inhibited line of rat pancreatic acinar cells, called BMRPA1.430 (BMRPA1) cells and the other a pancreatic acinar carcinoma obtained by transfection of BMRPA1 cells with a plasmid containing an activated human K-ras oncogene [single base mutation at codon 12, valine substitution for the wild type glycine in the ras protein (K-ras^val12); a kind gift of Dr. M. Perucho (CIBR, La Jolla, Calif.)] and a neomycin resistance gene. […] In addition, they phenotypically maintain differentiated cell functions such as continued enzyme production and activation of zymogen secretion by secretagogue.
Approximately 300,000 cells (either BMRPA1 or TUC-3) were plated in each of six wells and were allowed to adhere overnight. In one set of experiments, the initial media consisted of DMEM with 10% fetal bovine serum that contained no peptide. In another set of experiments, the initial media contained peptide. In the first set, media containing peptide was added after 24 hours; in both sets, after the first 24 hours, the media was changed every 24 hours and always contained peptide at a particular concentration. Cells were observed daily for three weeks for changes in morphology and growth characteristics. Peptides were present at concentrations of […].

[5] = tested on: ras-transformed pancreatic cancer (TUC-3) cells; assay: Peptide incubation with TUC-3 cells (morphology, phenotypic reversion); format: cell-based, rat
TUC-3 cells [6] = assay: Explantation of peptide-treated, morphologically revertant TUC-3 cells into nude mice; format: in vivo, Nu/Nu mice; conditions: for Tumor Nodule Size: 5 × 10^6 TUC-3 cells treated 2 weeks with peptide, posterior cervical fat pad, 5 nude mice, mean ± SD
Procedure: To evaluate cells that appeared to be morphologically revertant to the normal phenotype, approximately 5×10^6 morphologically revertant TUC-3 cells treated for two weeks with 100 μg/ml of PNC-2 were injected subcutaneously into the posterior cervical fatpad of each of five Nu/Nu mice. Similarly, 5×10^6 untreated TUC-3 cells were explanted into another five Nu/Nu mice. Daily observations, over a 120 day period, were made on both sets of mice to determine if tumor nodules appeared at the site of injection.

[7] = molecular target: Val 12-p21-JNK interaction (Homo sapiens, UniProt P01112, G12V); conditions: cited from earlier work
Val 12-Ha-ras-p21 = molecular target: T2, Val 12-Ha-ras-p21 (Homo sapiens, UniProt P01112, G12V); assay: Co-immunoprecipitation of raf, MEK, JNK and MAPK with injected Val 12-Ha-ras-p21 in oocytes; format: cell-based, Xenopus laevis; conditions: peptide co-injected with Val 12-p21 into oocytes; anti-Ha-ras immunoprecipitate (FIG. 4A)
T2 construct: host or cells: protein microinjected into Xenopus laevis oocytes
Procedure: In these experiments, the Ha-ras form of Val 12-p21 was injected into oocytes (100 ug/ml, 50 nl per oocyte) either alone or together with inhibitory p21 peptide (residues 96-110 shown in this figure). […] The lysate was centrifuged for 15 min at 17000×g at 4° C., and the supernatant was either used directly. The lysates were then subjected to immunoprecipitation using an anti-Ha-ras antibody (CalBiochem). In this procedure, cell lysate was first pre-cleared by incubation with 50 ul of protein A beads for 1 hr at room temperature, followed by centrifugation. Anti-Ha-ras antibody was added to the lysate such that 0.1 ug antibody was added per 250 ug of pre-cleared lysate protein. A volume of 25 μl protein A agarose beads (Sigma) was then added to the incubation mixture, and the resulting mixture was incubated overnight at 4° C., after which the mixture was centrifuged, and the immunoprecipitate was washed three times with 0.5 ml of kinase buffer as described above. Immunoprecipitates were subjected to SDS-PAGE as described above in the preceding paragraph and blotted with anti-Ha-ras (1:2000 with 0.25% BSA), anti-raf (CalBiochem, San Diego, Calif.), diluted 1:2000 with 0.25% BSA, anti-JNK polyclonal antibody (1:2000), anti-MEK (CalBiochem) and anti-MAPK, diluted 1:2000 with 0.25% BSA. […]

[8] = molecular target: T1, oncogenic ras-p21 (Val 12-p21); assay: Val 12-p21-induced oocyte maturation; format: cell-based, Xenopus laevis; conditions: peptide injected together with Val 12-p21

CO[C@@H]1[C@H](N(C)C(=O)c2ccccc2)C[C@H]2O[C@]1(C)n1c3ccccc3c3c4c(c5c6ccccc6n2c5c31)C(=O)NC4 [CGP 41 251]
insulin-activated wild-type ras-p21-induced oocyte maturation / signaling [1]: much less effect
oncogenic ras-p21-induced oocyte maturation / mitogenic signaling in oocytes [2]: blocks oncogenic ras-p21-induced oocyte maturation
effect on TUC-3 cells (TUC-3 cells [3]): induces both necrosis and phenotypic reversion of TUC-3 cells
growth of revertant TUC-3 cells in soft agar (TUC-3 cells [3]): fail to grow in soft agar
cytotoxicity to BMRPA1 cells (BMRPA1 cells): cytotoxic to BMRPA1 cells

CC[C@H](C)[C@H](NC(=O)[C@@H](NC(=O)[C@@H](NC(=O)[C@H](CCC(N)=O)NC(=O)[C@H](CCCCN)NC(=O)[C@H](CCCNC(=N)N)NC(=O)[C@H](Cc1ccc(O)cc1)NC(=O)[C@H](CO)NC(=O)[C@H](CC(=O)O)NC(=O)[C@H](CCC(=O)O)NC(=O)[C@@H](NC(=O)[C@@H](N)[C@@H](C)O)[C@@H](C)CC)C(C)C)C(C)C)C(=O)N[C@@H](CC(=O)O)C(=O)O [PNC-7, TIEDSYRKQVVID] (H-TIEDSYRKQVVID-OH)
cytotoxicity [4]: lack of cytotoxicity
effect on growth of BMRPA1 cells [4]: no apparent effects

CC[C@H](C)[C@H](NC(=O)[C@H](CCCNC(=N)N)NC(=O)[C@H](CCCCN)NC(=O)CNC(=O)[C@@H](NC(=O)[C@H](CO)NC(=O)[C@H](Cc1ccccc1)NC(=O)[C@@H]1CCCN1C(=O)[C@@H](N)CCSC)[C@@H](C)O)C(=O)N[C@@H](CCSC)C(=O)N[C@@H](CC(C)C)C(=O)NCC(=O)N[C@@H](CCC(=O)O)C(=O)N[C@@H](CCCCN)C(=O)N[C@@H](CCCCN)C(=O)N[C@@H](Cc1c[nH]c2ccccc12)C(=O)N[C@@H](CCCCN)C(=O)N[C@@H](CCSC)C(=O)N[C@@H](CCCNC(=N)N)C(=O)N[C@@H](CCCNC(=N)N)C(=O)N[C@@H](CC(N)=O)C(=O)N[C@@H](CCC(N)=O)C(=O)N[C@@H](Cc1ccccc1)C(=O)N[C@@H](Cc1c[nH]c2ccccc12)C(=O)N[C@H](C(=O)N[C@@H](CCCCN)C(=O)N[C@H](C(=O)N[C@@H](CCC(N)=O)C(=O)N[C@@H](CCCNC(=N)N)C(=O)NCC(=O)O)C(C)C)C(C)C [X13-leader, reference compound]
effect on morphology of BMRPA1 cells [4]: no effect

N[C@@H](Cc1ccc(O)cn1)C(=O)O [azatyrosine, reference compound]
oncogenic ras-p21-induced oocyte maturation / mitogenic signaling in oocytes [2]: selectively blocks oncogenic ras-p21-induced oocyte maturation

PNC-2-leader: ras-p21 residues 96-110 (SEQ ID NO:1) with penetratin leader KKWKMRRNQFWVKVQRG attached to its carboxyl terminal end (YREQIKRVKDSDVPKKWKMRRNQFWVKVQRG; amino acid residues 96-110 of oncogenic ras-p21 protein)
lowest concentration at which the morphological reversion of TUC-3 cells was achieved [5]: 1 ug/ml
phenotypic reversion of TUC-3 cells ([5]; 1 ug/ml, after two weeks): complete phenotypic reversion
change in cell morphology of TUC-3 cells ([5]; 100 μg/ml, 1 week (FIG. 2A)): the cells grow into contact-inhibited monolayers and show distinct cell boundaries
phenotypic reversion of TUC-3 cells ([5]; after one day of treatment (FIG. 2B: 100 μg/ml)): foci of acinar cellular differentiation appear
tumor formation by morphologically revertant TUC-3 cells in nude mice (TUC-3 cells [6]; cells treated two weeks with 100 ug/ml peptide, explanted subcutaneously): fail to form tumors up to two months after reversion

PNC-7-leader: ras-p21 residues 35-47 (TIEDSYRKQVVID, SEQ ID NO:2) with penetratin leader KKWKMRRNQFWVKVQRG attached to its carboxyl terminal end (TIEDSYRKQVVIDKKWKMRRNQFWVKVQRG; peptide amino acid residues 35-47 of oncogenic ras-p21 protein)
phenotypic reversion of TUC-3 cells ([5]; 100 and 200 ug/ml (FIG. 2C: two weeks)): phenotypic reversion of the cells
concentration at which complete reversion of TUC-3 cells was achieved ([5]; after two weeks of incubation): ≥ 100 µg/mL

YREQIKRVKDSDDVP (YREQIKRVKDSDVP; amino acid residues 96-110 of oncogenic ras-p21 protein) [PNC-2]
cytotoxicity [4]: lack of cytotoxicity
effect on growth of BMRPA1 cells [4]: no apparent effects
insulin-activated wild-type ras-p21-induced oocyte maturation / signaling [1]: little effect; also recorded: do not block insulin-activated wild type ras-induced maturation
phenotypic reversion of TUC-3 cells [5]: 100%
interferes with / blocks Val 12-p21-JNK interaction [7]: blocks oncogenic ras-p21-JNK interactions; also recorded: blocks the interaction of Val 12-p21 with JNK; also recorded: interferes with Val 12-p21-JNK interaction
co-precipitation of raf, MEK, JNK and MAPK with Val 12-ras-p21 (Val 12-Ha-ras-p21): none of these proteins precipitated with Val 12-ras-p21 although there is still some binding to raf
Val 12-p21-induced oocyte maturation [8]: strongly inhibits maturation
oncogenic ras-p21-induced oocyte maturation / mitogenic signaling in oocytes [2]: block mitogenic signaling by oncogenic ras-p21 in oocytes; also recorded: block oncogenic ras-induced oocyte maturation
Tumor Nodule Size (TUC-3 cells [6]; day 0): 0.0 mm
Tumor Nodule Size (TUC-3 cells [6]; day 7): 0.0 mm
Tumor Nodule Size (TUC-3 cells [6]; day 14): 0.0 mm
Tumor Nodule Size (TUC-3 cells [6]; day 21): 0.0 mm
Tumor Nodule Size (TUC-3 cells [6]; day 28): 0.0 mm
Tumor Nodule Size (TUC-3 cells [6]; day 42): 0.0 mm
Tumor Nodule Size (TUC-3 cells [6]; day 56): 0.0 mm
